Measurements as given in patent publication US11149014B2, “Method for treating pain or associated condition or symptom” (priority 2014, dated 2021).
Values joined by “and” are separate entries in the source; they are usually repeats but may differ in a detail not shown here. Identical values can stand only once. Counter-ions that a name gives are not always drawn.

Experiments:
[1] = Weight loss Study 2: weight change of normal Sabra mice; format: in vivo; details: 5 mg/Kg intra-peritoneal; 15 and 24 days
Description: Normal Sabra (mice 9-10 weeks old, about 32 gram, 7 mice/group) were injected (intra-peritoneal) with two doses of HU-436 (5 mg/Kg and 10 mg/Kg). The change in weight of mice was measured daily for 15 (FIG. 6) and 24 days (FIG. 7) from injection. In addition, a control group (wherein no dose was given) was monitored for comparison.

[2] = test system: Raw 264.7 cells; experiment: Reactive oxygen intermediate (ROI) production by Raw 264.7 macrophages (luminol/zymosan chemiluminescence); format: cell-based, mice; details: Mus musculus, RAW264.7, read-out: inhibition of ROI generation
Description: Raw 264.7 cells, a monocytic-macrophage cell line derived from BALB/c mice, were obtained from American Type Culture collection (Rockville, Md.). The cells were cultured in Dulbecco's modified Eagle medium (DMEM) supplemented with 5% fetal calf serum (FCS) and sodium pyrovate, glutamine, and antibiotics. For activation, the cells were incubated with LPS (E. coli 1 μg/mL for 24 h, Sigma, Israel). These cells were applied for ROI and Nitric Oxide (NO) generation in-vitro.
Raw 264.7 cells were removed using a scrapper, washed, and re-suspended in Hanks balanced salt solution (without phenol red). For measurement of chemiluminescence, two luminometer tubes were each loaded with: 0.5 mL of cell suspension (5×10^5 cells), HU-436 (two separate doses in each tube of 40 μg/ml and 60 μg/ml), 10 μL luminol (Sigma) and 30 μL of zymosan (Sigma). The chemiluminescence in each tube was measured immediately thereafter by a luminometer (Biolumate LB 95, Berhold, Wilbad, Germany)

[3] = Weight loss Study 1: body weight of DBA/1 male mice injected Type II collagen for CIA; format: in vivo; details: 5 mg/Kg intra-peritoneal for 16 days from day 18; 34 days
Description: DBA/1 male mice (6 weeks old, 20 gram, 15 mice/group) were injected Type II collagen for CIA. On day 18, the mice were injected (intra-peritoneal) with the following doses, for 16 days:
Vehicle: ethanol: chremophor: saline (1:1:18)
Methrotrexate (MTX): 0.5 mg/Kg.
In addition, a control group (wherein no dose was given) was monitored for comparison. The changes in body weight (in grams) was measured daily for a period of 34 days from injection. FIG. 4 (days 18-34) and FIG. 5 (overall change from day 1 to 34), show the changes in body weight of mice over a period of 34 days from injection.

[4] = test system: Sabra mice; experiment: Zymosan-induced hind paw swelling (inflammation), caliper; format: in vivo
[5] = test system: Sabra mice; experiment: Zymosan-induced hind paw pain, Von Frey monofiber instrument; format: in vivo; details: for pain reduction: 2, 6, 24 h
Description: Activity of HU-436 given orally were assayed in Sabra mice. Zymosan injected to mice left hind paw, induced inflammation, TNF (tumor necrosis factor) in the serum as well as pain. During 24 h, the inflammatory paw swelling response was assayed by caliper, whereas the pain in the hind paw, was determined by Von Frey monofiber instrument.
Sabra female, mice 6-7 weeks old, were employed. Zymosan 0.6 mgr in 40 micro-liters was injected into the left hind paw. Immediately thereafter 20 30, 50 or 100 mg/kg HU436 dissolved in olive oil, in 200 μl—was given orally. Two, six and twenty-four hours thereafter, the injected left hind paw of the mice (total 5-8 mice/treatment), were examined both for swelling (Inflammation) and pain (Von Frey). The levels of TNFα in the sera of Sabra mice were determined by Elisa, 24 hrs after HU-436 application.
Pain, was assayed by employing Von-Frey monofiber instrument. The higher the log value measured, the more force (g) one has to apply to cause pain=higher analgesia is being expressed=less pain.

[6] = test system: Female sabra mice; experiment: Forced swimming test (FST) for depressive effect; format: in vivo; details: for moment/kicking per minute score, Mean: mean of last 4 min
Description: To find out whether HU436 has depressive effects on mice behavior—a forced swimming test (FST) was adopted.
Female sabra mice 6-8 weeks old were employed. Measurement of locomotor activity in mice movements were counted for 6 minutes.
Forced Swimming test (FST): The forced swimming test employed was essential similar to that described in ((Pettit-Demoulier et al, (2005) Psychopharmacology 177:245-255;)
Mice were dropped individually into a glass aquarium (height […], diameter 10 cm) containing 10 cm of water and their activity was monitored for 6 minutes. Of the total 6 minutes only the last 4 minutes was recorded—the first 2 minutes were considered as time for habitation.
The mice were treated either with 5 mg/kg or 10 mg/kg of HU436 (ip). Mice were scored at 10 minutes 90 minutes or 180 minutes after administration. In addition to mice treated with vehicle as control, 1 mice was injected ip with 5 mg/kg CBD and scored 10 minutes later. The movements/kicking of the mice were counted and the data are presented in the attached Table 1.

[7] = Weight loss Study 3: weight gain and food consumption of C57BL/6 mice; format: in vivo; details: for food consumption: after 1-3 weeks; for reduction in weight gain compared to the control group: three weeks
Description: C57BL/6 mice (8-9 weeks old, 16 gram, 5 mice/group) were injected (intra-peritoneal) with two doses of HU-436 (5 mg/Kg and 10 mg/Kg). The change in weight of mice was measured weekly for three weeks (FIGS. 8 and 9) from injection. In addition, a control group (wherein no dose was given) was monitored for comparison.

## C=C(C)C1CCC(C)=CC1c1c(OC)cc(CCCCC)cc1OC(=O)CCN1CCOCC1 [HU-436, Maleate Salt of 3-methoxy-2-((6R)-3-methyl-6-(prop-l-en-2-yl)cyclohex-2-enyl)-5-pentylphenyl 3-morpholinopropanoate]
[1]
  changes in weight gain: significantly decreased the changes in weight gain
[2]; 40 μg/ml
  inhibition at 40 µg/mL: 20%
[2]; 60 μg/ml
  inhibition at 60 µg/mL: 28%
[3]
  reduction of body weight (weight gain of control group = 100% gain): up to 61%
[4]; 20 mg/kg ip injection
  inflammatory response (swelling) compared to controls: reduction in inflammatory response (swelling) was observed compared to controls
[4]; 30 mg/kg given orally
  inflammation compared to the controls: reduced inflammation compared to the controls
[4]; 50 mg/kg given orally
  inflammation compared to the controls: reduced inflammation compared to the controls
[4]; conclusion
  anti-inflammation properties: moderate anti-inflammation properties
[5]; 20 mg/kg given orally
  pain reduction: marked pain reduction
[5]; 30 mg/kg given orally
  pain reduction: marked pain reduction
[5]; 50 mg/kg given orally
  pain reduction: marked pain reduction
[5]; 50 mg/kg, after 24 hr
  pain reduction compared to Tremadol (5 mg/kg intra-peritoneally): more potent after 24 hr than Tremadol
[5]; 100 mg/kg given orally
  pain reduction: marked pain reduction
[5]; HU-436 30 or 50 mg/kg vs Aspirin 50 (and 100) mg/kg, 24 hr
  pain reduction compared to Aspirin: the most potent in reducing pain for 24 hr
[5]; conclusion
  long lasting pain reduction compared to Cannabidiol, Aspirin: more effective than Cannabidiol, Aspirin in reducing long lasting pain
[6]; 5 mg/kg, 10 min after ip
  moment/kicking per minute score, Mean: 81 per minute
[6]; 5 mg/kg, 10 min after ip, minute 3 in tank
  moment/kicking per minute score: 84 per minute
[6]; 5 mg/kg, 10 min after ip, minute 4 in tank
  moment/kicking per minute score: 96 per minute
[6]; 5 mg/kg, 10 min after ip, minute 5 in tank
  moment/kicking per minute score: 76 per minute
[6]; 5 mg/kg, 10 min after ip, minute 6 in tank
  moment/kicking per minute score: 68 per minute
[6]; 5 mg/kg, 90 min after ip
  moment/kicking per minute score, Mean: 75 per minute
[6]; 5 mg/kg, 90 min after ip, minute 3 in tank
  moment/kicking per minute score: 70 per minute
[6]; 5 mg/kg, 90 min after ip, minute 4 in tank
  moment/kicking per minute score: 85 per minute
[6]; 5 mg/kg, 90 min after ip, minute 5 in tank
  moment/kicking per minute score: 72 per minute
[6]; 5 mg/kg, 90 min after ip, minute 6 in tank
  moment/kicking per minute score: 73 per minute
[6]; 10 mg/kg, 10 min after ip
  moment/kicking per minute score, Mean: 75 per minute
[6]; 10 mg/kg, 10 min after ip, minute 3 in tank
  moment/kicking per minute score: 80 per minute
[6]; 10 mg/kg, 10 min after ip, minute 4 in tank
  moment/kicking per minute score: 84 per minute
[6]; 10 mg/kg, 10 min after ip, minute 5 in tank
  moment/kicking per minute score: 64 per minute
[6]; 10 mg/kg, 10 min after ip, minute 6 in tank
  moment/kicking per minute score: 72 per minute
[6]; 10 mg/kg, 180 min after ip
  moment/kicking per minute score, Mean: 77 per minute
[6]; 10 mg/kg, 180 min after ip, minute 3 in tank
  moment/kicking per minute score: 76 per minute
[6]; 10 mg/kg, 180 min after ip, minute 4 in tank
  moment/kicking per minute score: 52 per minute
[6]; 10 mg/kg, 180 min after ip, minute 5 in tank
  moment/kicking per minute score: 90 per minute
[6]; 10 mg/kg, 180 min after ip, minute 6 in tank
  moment/kicking per minute score: 90 per minute
[6]; 10 mg/kg, time after ip not given
  moment/kicking per minute score, Mean: 81 per minute and 83 per minute
[6]; 10 mg/kg, time after ip not given, minute 3 in tank
  moment/kicking per minute score: 79 per minute and 74 per minute
[6]; 10 mg/kg, time after ip not given, minute 4 in tank
  moment/kicking per minute score: 80 per minute and 64 per minute
[6]; 10 mg/kg, time after ip not given, minute 5 in tank
  moment/kicking per minute score: 89 per minute and 112 per minute
[6]; 10 mg/kg, time after ip not given, minute 6 in tank
  moment/kicking per minute score: 76 per minute and 83 per minute
[6]; 5 or 10 mg/kg ip
  depressive activity: did not cause depressive activity
[7]; 5 mg/Kg intra-peritoneal
  food consumption: reduction in food consumption
  reduction in weight gain compared to the control group: about 50%
[7]; 10 mg/Kg intra-peritoneal
  food consumption: reduction in food consumption
  reduction in weight gain compared to the control group: about 50%
